Patent publication EP4427807A1, “N-BRIDGED DIAZOCINE ANALOGUES OF CARBAMAZEPINE TO CONTROL NEURONAL ACTIVITY WITH LIGHT AND APPLICATIONS THEREOF” (Fundació Institut de Bioenginyeria de Catalunya (IBEC), priority 2023, dated 2024)
Entries after “also recorded” stand apart in the source; their conditions may differ. Read-outs that look alike come from different tables or passages of the source.

Assays:
[1] = Photochemical characterization by UV-vis absorption (photoisomerization, thermal relaxation in the dark, photofatigue); format: physicochemical
Excerpt: All reagents and solvents were purchased from Sigma-Aldrich and Cymit Quimica S.L. and were used without any further purification. Reactions were monitored by analytical thin layer chromatography (TLC) on commercial silica gel 60 F254 aluminum foils 20 x 20 cm (Merck). Spots were visualized under 254 or 365 nm UV lamp and/or with the use of an appropriate stain (ninidrine solution, Dragendorff reagent, alkaline potassium permanganate solution or phosphomolybdic acid solution 5% in ethanol). Compounds were purified by flash chromatography on PanReac Applichem silica gel 60 (40-63 µm) as stationary phase; the mobile phases are specified for each compound. All the UV/vis spectra and experiments were registered with Shimadzu UV-1800 UV-VIS spectrophotometer using quartz cuvettes (10 mm light path).
(§1) The maximal changes in the spectra were associated to the optimal λ to isomerize from Z to E and vice versa. Resistance to photofatigue was tested by cycles of illuminations between the optimal λ. The kinetics of the spontaneous relaxation in the dark (time course of absorption at a fixed λ) was measured to quantify the relaxation lifetime by fitting the plots to an exponential decay curve. The UV-vis absorption analysis for the photochromic characterization has been carried out at room temperature. Stock solutions were prepared in the concentration of 10 mM in DMSO. The solutions used for the measurements were obtained by diluting the stock solutions in PBS at the desired final concentration (in the range of 30 µM and 50 µM). Finally, the photostationary states (PSS) were quantified using HPLC at the λ corresponding to the isosbestic point.

[2] = Quantification of photostationary states (PSS) by HPLC at the isosbestic point; format: physicochemical; conditions: for ratio between the two isomers: cis (Z) / ratio between the two isomers: trans (E): HPLC
Procedure: High-performance Liquid Chromatography (HPLC) analysis were performed with a Waters Alliance e2695 Separation Module paired with a Waters 2998 UV/vis Photodiode Array Detector (Diode array 190-800 nm) and a Waters AQUITY QDa Mass Detector (positive ionization ESI+). Samples were injected on a XSelect CSH C18 […] 4.6x50 mm analytical column with the following mobile phases, respectively called line A and B: water with formic acid 0.1% (v/v) and acetonitrile with formic acid 0.1% (v/v). The injections were eluted with the following method: flow 1.6 mL/min, gradient 0.00-4.50 min, 5-100% B; 4.50-5.00 min, 100-5% B.
as §1, with “The photochromic response was characterized by the absorption spectra after irradiation with LEDs at λ = 365 nm, 380 nm, 420 nm, 460 nm, 500 nm. The maximal” for “The maximal”
The quantification of photostationary states (PSS) has been measured by HPLC analysis. The peaks at the Diode Array have been detected and integrated at the wavelength corresponding to the isosbestic point.

[3] = tested on: zebrafish (Danio rerio) larvae; experiment: Behavioural study (swimming activity) in zebrafish larvae under light cycles; format: in vivo
Procedure: Wild-type zebrafish embryos (Tupfel long-fin strain) were purchased from the animal facility of the Barcelona Biomedical Research Park (PRBB) and raised in darkness for 7 days at 28 °C in UV filtered tap water in Petri dishes (daily cleaned and refilled). Animal development was checked every 24 hours. Unhealthy or abnormal embryos and larvae were removed and euthanatized in tricaine methanosulfonate (400 mg/l). All experiments and procedures were conducted according to the European Directive 2010/63/EU.
Behavioral studies were conducted on wild-type zebrafish larvae at 7 days post-fertilization (dpf). Vehicle and compounds were added with a multichannel pipette to exclude differences related to a delay in the application of each solution. Movements were recorded and analyzed using the ZebraBox tracking system and the ZebraLab software (ViewPoint Life Science, France). On the morning of the test, 7-dpf larvae were moved into a new batch of fresh water and checked for motility capabilities and possible physical mutations. Larvae were then randomly divided into control and treatment groups. Each individual was placed in a separate well of a 96-well plate, each containing 200 µl of fresh UV filtered water and left undisturbed in the dark for 30 min to get acquainted with the new setting (habituation time). Afterwards, 100 µL of water were removed from each well and replaced with 100 µl of a double concentrated vehicle or treatment solution. At this point, the plate was inserted into the ZebraBox and the recording period started. Animals were exposed to controlled cycles of dark, 380 nm, 420 nm, 500 nm wavelengths or with a halogen lamp (warm white light), using the illumination protocols represented by coloured-shaded areas in their respective graphs (see figures). Illumination at 380, 420 and 500 nm was performed with a built-in array of 12 LEDs placed 12 cm away from the multiwell plate. The halogen lamp used was the Volpi Intralux 4000 (115 W). Light intensities, measured with a Newport 1916-C optical power meter coupled to a Newport 918D-SL-OD3R detector, were 0.21 mW·cm^-2 (380 nm), 2.43 mW·cm^-2 (420 nm) and 0.69 mW·cm^-2 (500 nm). All experiments were conducted between 12.00 and 15.00 pm (UTC+01:00).
Alterations of locomotor activity were determined by monitoring and measuring fast movements, swimming distances and duration of high-speed swimming. In particular, the dependent variables measured included: total distance travelled, distance travelled at ≤ 2 mm·s^-1, distance travelled at 2-6 mm·s^-1, distance travelled at ≥ 6 mm·s^-1, time spent moving, time spent freezing, and number of bursts. The arbitrary cut-off for motility (6 mm·s^-1) was chosen because no variance was found among the groups at lower speeds. Figures show distances travelled over 6 mm·s^-1 and total movements (addition of movements below cut-off high speed swimming) were not considered to limit the error of the video recording on minimal movements. Data were analysed by two-way ANOVA with Tukey's post-hoc test for statistical significance (GraphPad Prism 6).

[4] = tested on: primary hippocampal neurons; experiment: Current clamp recording of action potential firing in cultured primary hippocampal neurons; format: cell-based, Sprague-Dawley rat; conditions: Rattus norvegicus, Hippocampal neuron
Procedure: Procedures were performed in accordance with the European guidelines for animal care and use in research and were approved by the Animal Experimentation Ethics Committee at the University of Barcelona. Sprague-Dawley rat pups (P 1-5) were sacrificed by decapitation, hippocampi were isolated and treated with 0.1% trypsin in HBSS (10 min, 37°C). Neurons were plated on Poly-D-Lysine (PDL)-coated 16 mm coverslips (0.5-1 x 10^5 cells) and incubated at 37°C, 5% CO2 for 1,5 hours (to allow cells adhesion) in MEM supplemented with heat-inactivated FBS (5%), heat-inactivated HS (5%), penstrep (10 Ul/ml), L-glutamine (2mM) and glucose (20mM). Cells were cultured in Neurobasal A medium, supplemented with B-27 (5%), penstrep (5 Ul/ml), glutaMAX (0,5x) and glucose (15mM). On DIV 3 cultured cells were treated with 1 µM of Ara-C to prevent proliferation of non-neuronal cells. 50% of the maintenance medium was exchanged every 4 days.
Whole-cell recordings were performed at room temperature using an EPC-10 amplifier (HEKA Elektronik, Germany) and Patch Master software (HEKA). […] Firing of primary hippocampal neurons was recorded in current clamp configuration. […]
Data was analyzed using Igor Pro 6.05 (WaveMatrics, USA) and Origin 8.0 (OriginLab, USA) software. […] Statistical difference between groups was evaluated with Mann-Whitney test and was considered significant at the value of P below 0.05.

[5] = after irradiation at 400 nm for 3 minutes, 374 nm
[6] = after irradiation at 500 nm for 3 minutes, 374 nm
[7] = benchtop dark condition, isosbestic wavelength 374 nm

NC(=O)N1Cc2ccccc2/N=N\c2ccccc21 [compound of formula (II), (Z)-dibenzo[c,g][1,2,5]triazocine-11(12H)-carboxamide]
E to Z isomerization ([1]; 90 W EPV halogen lamp (600-700 nm), after one minute irradiation): full conversion
E to Z isomerization ([1]; 590 nm LED, over 1 h irradiation): quantitative conversion to the Z isomer
half-life for relaxation in the dark t1/2 ([1]; dark conditions, PBS 0.01M, 25°C): 3.2 h
resistance to several cycles of illumination (photofatigue) ([1]; several cycles of illumination): without degradation or loss in photochromic properties; also recorded: without loss in absorption or degradation
ratio between the two isomers: cis (Z) [2, 5]: 49%
ratio between the two isomers: trans (E) [2, 5]: 51%
ratio between the two isomers: cis (Z) [2, 6]: ≥ 99%
ratio between the two isomers: trans (E) [2, 6]: not detected
ratio between the two isomers: cis (Z) [2, 7]: ≥ 99%
ratio between the two isomers: trans (E) [2, 7]: not detected
isomer present in the dark ([2]; in the dark, at benchtop conditions): fully converted into the Z inactive isomer
E to Z back-isomerization ([2]; irradiation at ≥ 500 nm): full back-isomerization to the Z inactive form
distance swum ([3]; 1 µM, after the third illumination with blue light (420 nm)): significant increase of the distance swum
swimming distances ([3]; 10 µM, average of all green (500 nm) periods): slightly increased
swimming activity ([3]; 10 µM, under blue light (420 nm)): increasing the activity of the larvae
swimming activity ([3]; 10 µM, under green illumination (500 nm)): returning to control levels
swimming activity ([3]; 50 µM, first blue light (420 nm) illumination periods, effect reduced with consecutive blue illumination): significantly hyperactive
signs of toxicity or distress in the larvae ([3]; 1-50 µM, 7 dpf zebrafish larvae): No signs of toxicity or distress
swimming distances ([3]; all concentrations (1, 10, 50 µM), green light (500 nm), each period compared individually to control): did not alter significantly the swimming distances
effect on swimming behaviour in the dark ([3]; first 20 minutes of the experiment, full darkness, 7 dpf larvae): no effects
hyperactivity of treated larvae ([3]; illumination with warm white light (halogen lamp), all treated groups): blocked the hyperactivity
activity at 30 µM ([4]; spontaneously firing neurons, without blue light (Fig 2B: 500 nm), P > 0.05, mean ± SD, read-out: frequency of the action potentials generation, % from control): 72 ± 5%
activity at 30 µM ([4]; under blue light (400 nm) illumination, P < 0.01, n=4, mean ± SD, read-out: frequency of the action potentials generation (firing), % from control): 28 ± 13%
